Assay results from PMC5991783, “Discovery and Optimization of Indolyl-Containing 4-Hydroxy-2-Pyridone Type II DNA Topoisomerase Inhibitors Active against Multidrug Resistant Gram-negative Bacteria” (Journal of Medicinal Chemistry, 2018).

How the values were obtained:
[1] = test system: E. coli ATCC 25922; assay: MIC, wild-type E. coli ATCC 25922; type: cell-based, Escherichia coli; conditions: Escherichia coli, ATCC25922; E. coli ATCC 25922; read-out: MIC E. coli^WT
[2] = test system: E. coli SKM18; assay: microbe, parasite or virus in culture; type: cell-based, Escherichia coli; conditions: Escherichia coli, SKM18, read-out: MIC E. coli^R1, E. coli SKM18
[3] = test system: E. coli ELZ4251; assay: MIC, clinical isolate E. coli ELZ4251; type: cell-based; conditions: Escherichia coli, read-out: MIC E. coli^R2
[4] = test system: Acinetobacter baumannii ATCC BAA-747; assay: MIC, wild-type A. baumannii; type: cell-based; conditions: Acinetobacter baumannii, ATCCBAA747; A. baumannii ATCC BAA-747; read-out: MIC A. bau^WT
[5] = test system: A. baumannii MMX2240; assay: MIC, fluoroquinolone resistant A. baumannii; type: cell-based, Acinetobacter baumannii; conditions: Acinetobacter baumannii
[6] = test system: Klebsiella pneumoniae ATCC 35657; assay: MIC, wild-type K. pneumoniae; type: cell-based; conditions: Klebsiella pneumoniae, ATCC35657; K. pneumoniae ATCC 35657; read-out: MIC K. pneu^WT
[7] = target: E. coli DNA gyrase (Escherichia coli, UniProt P0AES4+P0AES6); assay: biochemical; conditions: E. coli DNA gyrase IC50
[8] = target: human topoisomerase II (Homo sapiens, UniProt P11388); assay: Human topoisomerase II decatenation assay; type: biochemical; conditions: Supplemental Table 1; read-out: Human Topo II IC50
[9] = test system: panel of 12 E. coli isolates; assay: Susceptibility testing, 12 E. coli isolates; type: cell-based, Escherichia coli; conditions: 12 strains
[10] = test system: panel of 12 A. baumannii isolates; assay: Susceptibility testing, 12 A. baumannii isolates; type: cell-based, Acinetobacter baumannii; conditions: 12 strains
[11] = test system: E. coli^WT (ATCC 25922); assay: Mouse septicemia model; type: in vivo, CD-1 mice; conditions: Mus musculus, iv, 96 h; read-out: survival
[12] = Pharmacokinetics in CD-1 mice; conditions: CD-1, mouse, plasma
[13] = Mouse plasma protein binding, equilibrium dialysis

Chain of E. coli DNA gyrase (P0AES4 whole entry, one chain of several): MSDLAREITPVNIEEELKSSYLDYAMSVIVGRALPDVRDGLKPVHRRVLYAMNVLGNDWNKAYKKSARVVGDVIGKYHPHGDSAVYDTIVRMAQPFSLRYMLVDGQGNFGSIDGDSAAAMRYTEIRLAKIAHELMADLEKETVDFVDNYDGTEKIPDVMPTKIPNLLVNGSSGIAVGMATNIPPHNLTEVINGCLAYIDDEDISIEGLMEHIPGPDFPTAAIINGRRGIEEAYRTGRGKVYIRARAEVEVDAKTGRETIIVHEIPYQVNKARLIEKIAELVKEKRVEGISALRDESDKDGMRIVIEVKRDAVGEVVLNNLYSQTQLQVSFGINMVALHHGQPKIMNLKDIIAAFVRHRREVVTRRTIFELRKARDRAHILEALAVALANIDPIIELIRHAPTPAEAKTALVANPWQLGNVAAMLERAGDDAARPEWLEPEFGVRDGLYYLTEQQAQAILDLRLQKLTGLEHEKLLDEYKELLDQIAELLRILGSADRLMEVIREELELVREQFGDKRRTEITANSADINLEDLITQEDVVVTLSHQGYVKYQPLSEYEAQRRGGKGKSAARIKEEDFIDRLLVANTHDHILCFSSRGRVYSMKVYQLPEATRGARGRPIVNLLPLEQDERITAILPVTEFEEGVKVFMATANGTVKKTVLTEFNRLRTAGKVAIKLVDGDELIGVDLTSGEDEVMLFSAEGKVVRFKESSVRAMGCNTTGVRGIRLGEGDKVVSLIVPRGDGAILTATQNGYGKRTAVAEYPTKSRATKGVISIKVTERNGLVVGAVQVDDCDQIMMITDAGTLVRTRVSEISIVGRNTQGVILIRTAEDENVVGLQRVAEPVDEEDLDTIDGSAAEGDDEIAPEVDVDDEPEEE
Chain of human topoisomerase II (P11388 whole entry): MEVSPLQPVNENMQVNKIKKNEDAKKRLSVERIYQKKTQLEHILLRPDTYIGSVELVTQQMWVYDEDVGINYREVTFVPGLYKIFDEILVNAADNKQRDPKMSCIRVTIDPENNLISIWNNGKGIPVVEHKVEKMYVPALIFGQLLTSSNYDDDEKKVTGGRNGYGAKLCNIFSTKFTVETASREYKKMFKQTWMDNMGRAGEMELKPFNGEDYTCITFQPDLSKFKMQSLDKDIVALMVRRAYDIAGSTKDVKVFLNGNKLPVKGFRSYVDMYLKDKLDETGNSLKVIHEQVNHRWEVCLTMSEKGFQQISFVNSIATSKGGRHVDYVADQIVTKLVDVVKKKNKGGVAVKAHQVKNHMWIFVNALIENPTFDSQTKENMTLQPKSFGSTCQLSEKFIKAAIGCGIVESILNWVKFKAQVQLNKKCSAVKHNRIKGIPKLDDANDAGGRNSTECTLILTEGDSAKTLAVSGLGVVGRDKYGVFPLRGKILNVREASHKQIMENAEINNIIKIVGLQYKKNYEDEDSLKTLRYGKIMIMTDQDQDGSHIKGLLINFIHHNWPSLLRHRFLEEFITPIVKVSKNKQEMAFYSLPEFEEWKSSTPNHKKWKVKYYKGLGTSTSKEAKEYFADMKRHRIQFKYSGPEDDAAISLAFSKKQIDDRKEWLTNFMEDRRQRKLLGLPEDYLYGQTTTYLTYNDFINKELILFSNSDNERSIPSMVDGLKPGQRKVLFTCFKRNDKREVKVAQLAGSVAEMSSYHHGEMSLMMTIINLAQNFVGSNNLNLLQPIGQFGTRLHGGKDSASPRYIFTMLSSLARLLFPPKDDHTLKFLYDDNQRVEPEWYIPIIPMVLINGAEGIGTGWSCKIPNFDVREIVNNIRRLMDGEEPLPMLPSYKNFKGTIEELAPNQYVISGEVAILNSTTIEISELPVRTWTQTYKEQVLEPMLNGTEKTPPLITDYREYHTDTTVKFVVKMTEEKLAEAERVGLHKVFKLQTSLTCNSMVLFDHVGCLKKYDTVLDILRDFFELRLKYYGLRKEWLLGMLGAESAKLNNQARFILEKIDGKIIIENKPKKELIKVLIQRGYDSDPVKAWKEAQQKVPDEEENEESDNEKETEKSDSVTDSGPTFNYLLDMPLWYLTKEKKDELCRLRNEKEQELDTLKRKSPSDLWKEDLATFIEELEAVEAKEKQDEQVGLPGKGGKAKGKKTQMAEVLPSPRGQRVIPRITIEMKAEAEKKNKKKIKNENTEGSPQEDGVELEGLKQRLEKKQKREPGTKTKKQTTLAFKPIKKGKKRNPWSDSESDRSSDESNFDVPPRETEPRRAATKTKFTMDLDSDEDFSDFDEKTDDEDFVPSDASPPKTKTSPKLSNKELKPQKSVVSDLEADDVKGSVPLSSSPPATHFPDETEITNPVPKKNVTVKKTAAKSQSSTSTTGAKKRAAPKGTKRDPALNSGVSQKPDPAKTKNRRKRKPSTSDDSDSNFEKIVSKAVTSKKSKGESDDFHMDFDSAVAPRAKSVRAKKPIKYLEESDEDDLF

`CCC(C)NCc1cc2cc3c(cc2n1C)OCCc1c-3[nH]c(=O)c(C(=O)O)c1O.Cl` (stereo not drawn) [Compound 6o, 10-((sec-Butylamino)methyl)-4-hydroxy-9-methyl-2-oxo-2,5,6,9-tetrahydro-1H-pyrido[2′,3′:4,5]oxepino[3,2-f]indole-3-carboxylic Acid Hydrochloride] showed an MIC [1] of 0.78 µg/mL, an MIC [2] of 0.78 µg/mL and an MIC [3] of 2 µg/mL. For the same compound, the MIC [4] was 1.6 µg/mL, the MIC [5] was 0.78 µg/mL and the MIC [6] was 1 µg/mL. The IC50 [7] was 0.11 µM, the IC50 [8] was over 100 µM and the “E. coli MIC90” value ([9]; Mueller Hinton II broth) was 1 µg/mL. For the same compound, the MIC90 ([9]; Escherichia coli, Mueller Hinton II broth, read-out: E. coli MIC90) was 0.5 to 1 µg/mL, the MIC50 ([9]; Escherichia coli) was 1 µg/mL and the MIC ([9]; Escherichia coli, read-out: E. coli MIC range) was 0.12 to 1 µg/mL. For the same compound, the “A. baumannii MIC90” value ([10]; Mueller Hinton II broth) was 8 µg/mL, the MIC90 ([10]; Acinetobacter baumannii, Mueller Hinton II broth, read-out: A. baumannii MIC90) was 8 to 16 µg/mL and the MIC50 ([10]; Acinetobacter baumannii) was 2 µg/mL. The responders at 20 mg/kg [11] was 100%, the AUC(0-t) ([12]; iv, 10 mg/kg, pH 8) was 3440 ng·h/mL and the clearance ([12]; iv, 10 mg/kg, pH 8) was 48 mL/min/kg. It also gave a half-life ([12]; iv, 10 mg/kg, pH 8) of 2.1 h, a bioavailability ([12]; po) of 41% and a fraction unbound at 1 μM [13] of 0.23.
